# Laboratory results from PubChem BioAssay AID2060511 (Molecular Pharmacology Branch, DTP, NCI, 2025).
# Test system: 422866-222-R5-J1-PDC spheroids with HUVEC/MSC, viability
# Assay: Anticancer human tumor 422866-222-R5-J1-PDC patient-derived pancreatic adenocarcinoma cell line growth inhibition [GQUAD]
# Conditions: for IC50: curve of first compound; for viability, T/C: stronger effect = lower value
# Method in brief: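 Viability of tumor cells grown as complex spheroids with endothelial and stromal cells, exposed to drug combinations. Top concentration at or near clinical Cmax (else 10 microM), diluted in half-log increments.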
# [1] = second compound 0.0316 µM, first compound 0.0316 µM
# [2] = second compound 0.0316 µM, first compound 0.1 µM
# [3] = second compound 0.0316 µM, first compound 0.316 µM
# [4] = second compound 0.0316 µM, first compound 1 µM
# [5] = second compound 0.0316 µM, first compound 3.16 µM
# [6] = second compound 0.0316 µM, first compound 10 µM
# [7] = second compound 0.1 µM, first compound 0.0316 µM
# [8] = second compound 0.1 µM, first compound 0.1 µM
# [9] = second compound 0.1 µM, first compound 0.316 µM
# [10] = second compound 0.1 µM, first compound 1 µM
# [11] = second compound 0.1 µM, first compound 3.16 µM
# [12] = second compound 0.1 µM, first compound 10 µM
# [13] = second compound 0.316 µM, first compound 0.0316 µM
# [14] = second compound 0.316 µM, first compound 0.1 µM
# [15] = second compound 0.316 µM, first compound 0.316 µM
# [16] = second compound 0.316 µM, first compound 1 µM
# [17] = second compound 0.316 µM, first compound 3.16 µM
# [18] = second compound 0.316 µM, first compound 10 µM
# [19] = second compound 1 µM, first compound 0.0316 µM
# [20] = second compound 1 µM, first compound 0.1 µM
# [21] = second compound 1 µM, first compound 0.316 µM
# [22] = second compound 1 µM, first compound 1 µM
# [23] = second compound 1 µM, first compound 3.16 µM
# [24] = second compound 1 µM, first compound 10 µM
# [25] = second compound 3.16 µM, first compound 0.0316 µM
# [26] = second compound 3.16 µM, first compound 0.1 µM
# [27] = second compound 3.16 µM, first compound 0.316 µM
# [28] = second compound 3.16 µM, first compound 1 µM
# [29] = second compound 3.16 µM, first compound 3.16 µM
# [30] = second compound 3.16 µM, first compound 10 µM
# [31] = second compound 10 µM, first compound 0.0316 µM
# [32] = second compound 10 µM, first compound 0.1 µM
# [33] = second compound 10 µM, first compound 0.316 µM
# [34] = second compound 10 µM, first compound 1 µM
# [35] = second compound 10 µM, first compound 3.16 µM
# [36] = second compound 10 µM, first compound 10 µM
# 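Also: spheroids exposed to compounds for seven days before reading.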
# 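For viability, T/C in this document: percent viability relative to DMSO vehicle control taken as 100%.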
structure (smiles),measurement,setting,value
CC(C)n1c(=O)n(C)c2cnc3cc(F)c(-c4ccc(OCCCN5CCCCC5)nc4)cc3c21 + Cc1cnc(CNC(=O)c2c(=O)c3ccc(N4CCCN(C)CC4)nc3n3c2sc2ccccc23)cn1,IC50,second compound 0.0316 µM,> 10000 nM
same,IC50,second compound 0.1 µM,> 10000 nM
same,IC50,second compound 0.316 µM,> 10000 nM
same,IC50,second compound 1 µM,> 10000 nM
same,IC50,second compound 3.16 µM,> 10000 nM
same,IC50,second compound 10 µM,> 10000 nM
same,"viability, T/C",[1],81.6%
same,"viability, T/C",[2],74.2%
same,"viability, T/C",[3],75%
same,"viability, T/C",[4],74%
same,"viability, T/C",[5],76.7%
same,"viability, T/C",[6],58.5%
same,"viability, T/C",[7],84.9%
same,"viability, T/C",[8],85.2%
same,"viability, T/C",[9],75%
same,"viability, T/C",[10],75.6%
same,"viability, T/C",[11],90.8%
same,"viability, T/C",[12],50.9%
same,"viability, T/C",[13],86.2%
same,"viability, T/C",[14],93%
same,"viability, T/C",[15],96%
same,"viability, T/C",[16],80.6%
same,"viability, T/C",[17],90.8%
same,"viability, T/C",[18],69.1%
same,"viability, T/C",[19],87.5%
same,"viability, T/C",[20],85.8%
same,"viability, T/C",[21],87.3%
same,"viability, T/C",[22],96%
same,"viability, T/C",[23],96.7%
same,"viability, T/C",[24],71%
same,"viability, T/C",[25],74.5%
same,"viability, T/C",[26],90.5%
same,"viability, T/C",[27],81.1%
same,"viability, T/C",[28],94.2%
same,"viability, T/C",[29],92.6%
same,"viability, T/C",[30],77.4%
same,"viability, T/C",[31],70.9%
same,"viability, T/C",[32],76.5%
same,"viability, T/C",[33],82.2%
same,"viability, T/C",[34],82.3%
same,"viability, T/C",[35],85.5%
same,"viability, T/C",[36],62.5%
O=C(NO)c1cnc(N2CCN(S(=O)(=O)c3ccc4ccccc4c3)CC2)nc1 + Cc1cnc(CNC(=O)c2c(=O)c3ccc(N4CCCN(C)CC4)nc3n3c2sc2ccccc23)cn1,IC50,second compound 0.0316 µM,824 nM
same,IC50,second compound 0.1 µM,1640 nM
same,IC50,second compound 0.316 µM,1650 nM
same,IC50,second compound 1 µM,1730 nM
same,IC50,second compound 3.16 µM,1460 nM
same,IC50,second compound 10 µM,574 nM
same,"viability, T/C",[1],89.8%
same,"viability, T/C",[2],75.8%
same,"viability, T/C",[3],60.2%
same,"viability, T/C",[4],43%
same,"viability, T/C",[5],42%
same,"viability, T/C",[6],2.99%
same,"viability, T/C",[7],86.4%
same,"viability, T/C",[8],75.1%
same,"viability, T/C",[9],93.6%
same,"viability, T/C",[10],49.1%
same,"viability, T/C",[11],40.2%
same,"viability, T/C",[12],5.96%
same,"viability, T/C",[13],90.9%
same,"viability, T/C",[14],84%
same,"viability, T/C",[15],85.9%
same,"viability, T/C",[16],52.7%
same,"viability, T/C",[17],39.9%
same,"viability, T/C",[18],6.44%
same,"viability, T/C",[19],71.9%
same,"viability, T/C",[20],86.8%
same,"viability, T/C",[21],82.2%
same,"viability, T/C",[22],63.1%
same,"viability, T/C",[23],33.5%
same,"viability, T/C",[24],4.12%
same,"viability, T/C",[25],70.5%
same,"viability, T/C",[26],91.8%
same,"viability, T/C",[27],63.5%
same,"viability, T/C",[28],56.9%
same,"viability, T/C",[29],35.7%
same,"viability, T/C",[30],0.26%
same,"viability, T/C",[31],72.3%
same,"viability, T/C",[32],74.6%
same,"viability, T/C",[33],65.1%
same,"viability, T/C",[34],33.4%
same,"viability, T/C",[35],21%
same,"viability, T/C",[36],0.26%
CC1COCCN1c1cc(-c2ccnn2C)c2ccnc(-c3ccn[nH]3)c2n1 (stereo unspecified) + Cc1[nH]c2ccc(F)cc2c1-c1nc2c3cccnc3c3ncccc3c2[nH]1,IC50,second compound 0.0316 µM,> 10000 nM
same,IC50,second compound 0.1 µM,> 10000 nM
same,IC50,second compound 0.316 µM,> 10000 nM
same,IC50,second compound 1 µM,31.6 nM
same,IC50,second compound 3.16 µM,31.6 nM
same,IC50,second compound 10 µM,31.6 nM
same,"viability, T/C",[1],84.4%
same,"viability, T/C",[2],58.8%
same,"viability, T/C",[3],46.1%
same,"viability, T/C",[4],42%
same,"viability, T/C",[5],52.8%
same,"viability, T/C",[6],87.2%
same,"viability, T/C",[7],83.3%
same,"viability, T/C",[8],64.9%
same,"viability, T/C",[9],41.6%
same,"viability, T/C",[10],33.7%
same,"viability, T/C",[11],50%
same,"viability, T/C",[12],93.7%
same,"viability, T/C",[13],101%
same,"viability, T/C",[14],58.1%
same,"viability, T/C",[15],45.3%
same,"viability, T/C",[16],36.8%
same,"viability, T/C",[17],66%
same,"viability, T/C",[18],75%
same,"viability, T/C",[19],80.9%
same,"viability, T/C",[20],51.9%
same,"viability, T/C",[21],41.1%
same,"viability, T/C",[22],37.5%
same,"viability, T/C",[23],75.3%
same,"viability, T/C",[24],86.6%
same,"viability, T/C",[25],60.6%
same,"viability, T/C",[26],55.9%
same,"viability, T/C",[27],41.5%
same,"viability, T/C",[28],42.6%
same,"viability, T/C",[29],73.2%
same,"viability, T/C",[30],91.5%
same,"viability, T/C",[31],62.8%
same,"viability, T/C",[32],57.8%
same,"viability, T/C",[33],43.1%
same,"viability, T/C",[34],47.1%
same,"viability, T/C",[35],82.8%
same,"viability, T/C",[36],84.2%
